Two molecules from patent publication US20140031227A1, “HERBICIDAL COMPOSITIONS COMPRISING 4-AMINO-3-CHLORO-5-FLUORO-6-(4-CHLORO-2-FLUORO-3-METHOXYPHENYL) PYRIDINE-2-CARBOXYLIC ACID OR A DERIVATIVE THEREOF AND GLYPHOSATE OR GLUFOSINATE” (DOW AGROSCIENCES LLC, priority 2012, published 2014) can be followed below.

Test [1] deals with SCPMA (Schoenoplectus maritimus (L.) Lye or Bolboschoenus maritimus (L.) Palla, sea clubrush). As to the kind of experiment: Example II in-water applied mixtures, transplanted paddy rice weeds, greenhouse: SCPMA. Format: in vivo. Particulars: Compound A Acid alone. The method, then:
Weed seeds or nutlets of the desired test plant species were planted in puddled soil (mud) prepared by mixing a shredded, non-sterilized mineral soil (50.5 percent silt, 25.5 percent clay, and 24 percent sand, with a pH of about 7.6 and an organic matter content of about 2.9 percent) and water at a 1:1 volumetric ratio. The prepared mud was dispensed in 365 mL aliquots into 16-ounce (oz.) non-perforated plastic pots with a surface area of 86.59 square centimeters (cm^2) leaving a headspace of 3 centimeters (cm) in each pot. Mud was allowed to dry overnight prior to planting or transplanting. Rice seeds were planted in Sun Gro MetroMix® 306 planting mixture, which typically has a pH of 6.0 to 6.8 and an organic matter content of about 30 percent, in plastic plug trays. Seedlings at the second or third leaf stage of growth were transplanted into 840 mL of mud contained in 32-oz. non-perforated plastic pots with a surface area of 86.59 cm^2 4 days prior to herbicide application. The paddy was created by filling the headspace of the pots with 2.5 to 3 cm of water. […] The plants were grown for 4-22 days in a greenhouse with an approximate 14 hr photoperiod which was maintained at about 29′C during the day and 26° C. during the night. Nutrients were added as Osmocote® (19:6:12, N:P:K+minor nutrients) at 2 g per 16-oz. pot and 4 g per 32-oz. pot. Water was added on a regular basis to maintain the paddy flood, and supplemental lighting was provided with overhead metal halide 1000-Watt lamps as necessary. The plants were employed for testing when they reached the first through fourth true leaf stage.
Treatments consisted of the acid or esters of 4-amino-3-chloro-5-fluoro-6-(4-chloro-2-fluoro-3-methoxy-phenyl)pyridine-2-carboxylic acid (compound A) each formulated as an SC (suspension concentrate) and various herbicidal components alone and in combination. Forms of compound A were applied on an acid equivalent basis.
For formulated compounds, a measured amount was placed in an individual 100 or 200 mL glass vial and was dissolved in a volume of 1.25% (v/v) Agri-Dex® crop oil concentrate to obtain application solutions.
Applications were made by injecting with a pipetter appropriate amounts of the application solutions, individually and sequentially, into the aqueous layer of the paddy. Control plants were treated in the same manner with the solvent blank. Applications were made so that all treated plant material received the same concentrations of acetone and crop oil concentrate.
The treated plants and control plants were placed in a greenhouse as described above and water was added as needed to maintain a paddy flood. After approximately 3 weeks the condition of the test plants as compared with that of the untreated plants was determined visually and scored on a scale of 0 to 100 percent where 0 corresponds to no injury or growth inhibition and 100 corresponds to complete kill.
Colby's equation was used to determine the herbicidal effects expected from the mixtures (Colby, S. R. 1967. Calculation of the synergistic and antagonistic response of herbicide combinations. Weeds 15:20-22.).

Test [2] relates to VIOTR (Viola tricolor L., wild violet). Nature of the test: Example IV postemergence foliar-applied mixtures, general weed control, greenhouse: VIOTR. Format: in vivo. Particulars: Compound A Benzyl Ester alone. The method, then: Seeds or nutlets of the desired test plant species were planted in Sun Gro Metro-Mix® 360 planting mixture, which typically has a pH of 6.0 to 6.8 and an organic matter content of about 30 percent, in plastic pots with a surface area of 84.6 square centimeters (cm^2). […] The plants were grown for 7-31 days (d) in a greenhouse with an approximate 15 hour (h) photoperiod which was maintained at about 23-29° C. during the day and 22-28° C. during the night. Nutrients (Peters Excel® 15-5-15 5-Ca 2-Mg) and water were added on a regular basis and supplemental lighting was provided with overhead metal halide 1000-Watt lamps as necessary. The plants were employed for testing when they reached the first, second, or third true leaf stage.
Treatments consisted of the acid or the benzyl ester of 4-amino-3-chloro-5-fluoro-6-(4-chloro-2-fluoro-3-methoxy-phenyl)pyridine-2-carboxylic acid (Compound A), each formulated as an SC, and various herbicidal components alone and in combination. Forms of compound A were applied on an acid equivalent basis.
Other herbicidal components were applied on an acid equivalent or active ingredient basis and included the 5-enolpyruvylshikimate-3-phosphate synthase (EPSPS)-inhibiting herbicide, glyphosate dimethylamine salt, formulated as Durango DMA® and the glutamine synthase (GS)-inhibiting herbicide, glufosinate ammonium, formulated as Ignite® 280.
For treatments comprised of formulated compounds, measured amounts of compounds were placed individually in 25 mL glass vials and diluted in a volume of 1.25% (v/v) Agri-dex crop oil concentrated to obtain 12× stock solutions. […] Application solutions were prepared by adding an appropriate amount of each stock solution (typically 1 mL) and diluted to the appropriate final concentrations with the addition of 10 mL of an aqueous mixture of 1.25% (v/v) Agri-dex crop oil concentrate so that the final spray solutions contained 1.25% (v/v) Agri-dex crop oil concentrate.
All stock solutions and applications solutions were visually inspected for compound compatibility prior to application. Compound requirements are based upon a 12 mL application volume at a rate of 187 liters per hectare (L/ha). […]
The treated plants and control plants were placed in a greenhouse as described above and watered by sub-irrigation to prevent wash-off of the test compounds. After approximately 3 weeks, the condition of the test plants as compared with that of the untreated plants was determined visually and scored on a scale of 0 to 100 percent where 0 corresponds to no injury or growth inhibition and 100 corresponds to complete kill. […]

As for `COc1c(Cl)ccc(-c2nc(C(=O)O)c(Cl)c(N)c2F)c1F` [Compound A Acid, 4-amino-3-chloro-6-(4-chloro-2-fluoro-3-methoxyphenyl)-5-fluoropyridine-2-carboxylic acid], the “Visual Weed Control (%) - 21 DAA SCPMA Obs” value in test [1] (8.75 gae/ha), in test [1] (17.5 gae/ha) and in test [1] (35 gae/ha) was 0% in each case.
Turning to `COc1c(Cl)ccc(-c2nc(C(=O)OCc3ccccc3)c(Cl)c(N)c2F)c1F` [Compound A Benzyl Ester], the “Visual Weed Control (%) - 18 DAA VIOTR Obs” value was 15% in test [2] (2 gae/ha) and 20% in test [2] (4 gae/ha).
